SMILES strings stand for the structures.

From patent US9382208B1, “Negative allosteric modulators of metabotropic glutamate receptor 2” (Vanderbilt University, priority 2015, dated 2016) come the findings set out here.

The experiment has as its target T1, rat mGlu2 (Rattus norvegicus, UniProt P31421).
T1 construct: expressed in transfected cells
In words: mGlu2 Ca2+ flux assay. The experiment is classed as cell-based. Particulars: for IC50: Gα15 HEK293 cells stably expressing rat mGlu2, glutamate EC80 addition, read-out: rat mGlu2 IC50; for remaining activity at 30 µM: amplitude of response in the presence of 30 μM test compound as percentage of maximal response to glutamate, read-out: rat mGlu2 Glu max (%). As for the experimental part:
Gα15 HEK293 cells stably expressing rat mGlu2 were plated in black-walled, clear-bottomed, poly-D-lysine coated 384-well plates in 20 μL of assay medium (DMEM containing 10% dialyzed FBS, 20 mM HEPES, and 1 mM sodium pyruvate) at a density of 12K cells/well. The cells were grown overnight at 37° C. in the presence of 5% CO2. The next day, medium was removed and the cells incubated with 20 μL of 2.3 μM Fluo-4, AM prepared as a 2.3 mM stock in DMSO and mixed in a 1:1 ratio with 10% (w/v) pluronic acid F-127 and diluted in assay buffer (Hank's balanced salt solution, 20 mM HEPES, and 2.5 mM probenecid) for 45 minutes at 37° C. Dye was removed, 20 μL of assay buffer was added, and the plate was incubated for 5 minutes at room temperature.
Ca^2+ flux was measured using the Functional Drug Screening System (FDSS7000, Hamamatsu, Japan). After establishment of a fluorescence baseline for about 3 seconds, the compounds of the present invention were added to the cells, and the response in cells was measured. 2.3 minutes later an EC20 concentration of the mGlu2 receptor agonist glutamate was added to the cells, and the response of the cells was measured for 1.9 minutes; an EC80 concentration of agonist was added and readings taken for an additional 1.7 minutes. All test compounds were dissolved and diluted to a concentration of 10 mM in 100% DMSO. Compounds were then serially diluted 1:3 in DMSO into 10 point concentration response curves, transferred to daughter plates, and further diluted into assay buffer to a 2× stock. Calcium fluorescence measures were recorded as fold over basal fluorescence; raw data was then normalized to the maximal response to glutamate. Antagonism of the agonist response of the mGlu2 receptor in the present invention was observed as a decrease in response to nearly maximal concentrations of glutamate in the presence of compound compared to the response to glutamate in the absence of compound.
The raw data file containing all time points was used as the data source in the analysis template. This was saved by the FDSS as a tab-delimited text file. Data were normalized using a static ratio function (F/F0) for each measurement of the total 360 values per well divided by each well's initial value. Data were then reduced to peak amplitudes (Max−Initial Min) using a time range that starts approximately 3 seconds prior to the glutamate EC80 addition and continues for approximately 90 seconds. This is sufficient time to capture the peak amplitude of the cellular calcium response. Individual amplitudes were expressed as % ECMax by multiplying each amplitude by 100 and then dividing the product by the mean of the amplitudes derived from the glutamate ECMax-treated wells. IC50 values for test compounds were generated by fitting the normalized values versus the log of the test compound concentration (in mol/L) using a 4 parameter logistic equation where none of the parameters were fixed. Each of the three values collected at each concentration of test compound were weighted evenly.
For NAMs, potency (IC50) and maximum response (% Glu Max), i.e. the amplitude of response in the presence of 30 μM test compound as a percentage of the maximal response to glutamate, are reported. […] Compounds with no measurable activity are designated as “>30,000 nM” since the top concentration of compound tested in the assay is 30 μM.
On the technique in general: Calcium assays in cells follow changes in intracellular calcium, usually with a dye or a luminescent sensor.

T1 sequence (P31421 19-872): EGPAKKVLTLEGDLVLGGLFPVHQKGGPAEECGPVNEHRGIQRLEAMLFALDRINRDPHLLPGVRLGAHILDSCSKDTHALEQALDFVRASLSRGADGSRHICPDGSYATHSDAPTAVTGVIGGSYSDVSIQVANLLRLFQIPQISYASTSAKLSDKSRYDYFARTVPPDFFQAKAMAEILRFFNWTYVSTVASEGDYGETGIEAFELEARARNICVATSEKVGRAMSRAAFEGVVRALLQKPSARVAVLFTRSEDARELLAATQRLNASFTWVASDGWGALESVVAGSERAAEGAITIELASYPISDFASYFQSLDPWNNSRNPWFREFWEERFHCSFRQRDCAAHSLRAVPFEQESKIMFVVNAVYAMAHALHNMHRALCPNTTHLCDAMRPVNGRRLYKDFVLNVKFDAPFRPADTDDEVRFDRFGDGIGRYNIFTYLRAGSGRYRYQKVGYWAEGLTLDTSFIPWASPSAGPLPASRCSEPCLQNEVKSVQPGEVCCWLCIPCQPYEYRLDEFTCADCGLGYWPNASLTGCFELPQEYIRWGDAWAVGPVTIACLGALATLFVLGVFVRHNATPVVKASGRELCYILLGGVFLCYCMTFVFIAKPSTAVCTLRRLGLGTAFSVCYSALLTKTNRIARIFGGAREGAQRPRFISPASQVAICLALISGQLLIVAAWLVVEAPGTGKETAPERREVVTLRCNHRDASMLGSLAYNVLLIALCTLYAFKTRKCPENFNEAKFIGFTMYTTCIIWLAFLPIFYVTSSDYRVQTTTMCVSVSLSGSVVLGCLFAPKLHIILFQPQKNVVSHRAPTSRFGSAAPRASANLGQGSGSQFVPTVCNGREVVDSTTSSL

As a reminder, the IC50 is the concentration that inhibits the measured activity by half. On to `CN(Cc1cc(F)c2c(c1)c(=O)c(C(N)=O)cn2-c1ccc(F)cc1)C1CC(F)(F)C1` [Compound 91, 6-(((3,3-difluorocyclobutyl)(methyl)amino)methyl)-8-fluoro-1-(4-fluorophenyl)-4-oxo-1,4-dihydroquinoline-3-carboxamide], for which the IC50 is over 30000 nM. For `NC(=O)c1cn(-c2ccc(F)cc2)c2ccc(CN3CCCCC3)cc2c1=O` [Compound 4, 1-(4-fluorophenyl)-4-oxo-6-(piperidin-1-ylmethyl)-1,4-dihydroquinoline-3-carboxamide], the IC50 was over 10000 nM and the remaining activity at 30 µM was 53.8%. As to `NC(=O)c1cn(-c2ccc(F)cc2)c2ccc(CN3CCCSCC3)cc2c1=O` [Compound 71, 6-((1,4-thiazepan-4-yl)methyl)-1-(4-fluorophenyl)-4-oxo-1,4-dihydroquinoline-3-carboxamide], the half-inhibitory concentration (IC50) stood at 164 nM and the remaining activity at 30 µM worked out at 2.06%. The corresponding values for `NC(=O)c1cn(-c2ccc(F)cc2)c2ccc(NCCN3CCOCC3)cc2c1=O` [Compound 28, 1-(4-fluorophenyl)-6-((2-morpholinoethyl)amino)-4-oxo-1,4-dihydroquinoline-3-carboxamide] are 1150 nM and 0.77%.

Take `NC(=O)c1cn(-c2ccc(F)cc2)c2ccc(CN3CCC(F)(F)C3)cc2c1=O` [Compound 86, 6-((3,3-difluoropyrrolidin-1-yl)methyl)-1-(4-fluorophenyl)-4-oxo-1,4-dihydroquinoline-3-carboxamide]: the IC50 stood at 259 nM and the remaining activity at 30 µM came out at 0.98%.

Consider `Cc1cc(-n2cc(C(N)=O)c(=O)c3cc(CCc4cnc(C)nc4)ccc32)sn1` [Compound 22, 1-(3-methylisothiazol-5-yl)-6-(2-(2-methylpyrimidin-5-yl)ethyl)-4-oxo-1,4-dihydroquinoline-3-carboxamide], for which the half-inhibitory concentration (IC50) was found to be 419 ± 46 nM and the remaining activity at 30 µM was 1.2 ± 0.5%.

Turning to `NC(=O)c1cn(-c2ccc(F)cc2)c2ccc(CN3CCOCC3)cc2c1=O` [Compound 3, 1-(4-fluorophenyl)-6-(morpholinomethyl)-4-oxo-1,4-dihydroquinoline-3-carboxamide], the IC50 amounted to 3910 nM and the remaining activity at 30 µM was -0.78%. The like results for `Cc1ncc(COc2ccc3c(c2)c(=O)c(C(N)=O)cn3-c2ccc(F)cc2)cn1` [Compound 29, 1-(4-fluorophenyl)-6-((2-methylpyrimidin-5-yl)methoxy)-4-oxo-1,4-dihydroquinoline-3-carboxamide] were, in that order, 843 nM and 1.92%. The like results for `NC(=O)c1cn(-c2ccc(F)cc2)c2ccc(N3CCCCC3c3cccnc3)cc2c1=O` (stereo not shown) [Compound 38, 1-(4-fluorophenyl)-4-oxo-6-(2-(pyridin-3-yl)piperidin-1-yl)-1,4-dihydroquinoline-3-carboxamide] were, in that order, 900 nM and 1.68%. The corresponding values for `NC(=O)c1cn(-c2ccc(F)cc2)c2c(F)cc(CN3CCC(F)(F)C3)cc2c1=O` [Compound 95, 6-((3,3-difluoropyrrolidin-1-yl)methyl)-8-fluoro-1-(4-fluorophenyl)-4-oxo-1,4-dihydroquinoline-3-carboxamide] are over 10000 nM and 31.1%.

On to `Cc1ccc(OCc2ccc3c(c2)c(=O)c(C(N)=O)cn3-c2ccc(F)cc2)cn1` [Compound 41, 1-(4-fluorophenyl)-6-(((6-methylpyridin-3-yl)oxy)methyl)-4-oxo-1,4-dihydroquinoline-3-carboxamide], for which the IC50 worked out at 265 ± 73 nM and the remaining activity at 30 µM was 1.62 ± 0.23%. As to `NC(=O)c1cn(-c2ccc(F)cc2)c2c(F)cc(CN3CCC(F)(F)CC3)cc2c1=O` [Compound 94, 6-((4,4-difluoropiperidin-1-yl)methyl)-8-fluoro-1-(4-fluorophenyl)-4-oxo-1,4-dihydroquinoline-3-carboxamide], the concentration for half-maximal inhibition (IC50) was found to be 1770 nM and the remaining activity at 30 µM was found to be 5.78%. The like results for `NC(=O)c1cn(-c2ccc(F)cc2)c2ccc(CN3CCCS(=O)(=O)CC3)cc2c1=O` [Compound 85, 6-((1,1-dioxido-1,4-thiazepan-4-yl)methyl)-1-(4-fluorophenyl)-4-oxo-1,4-dihydroquinoline-3-carboxamide] were, in that order, 422 ± 52 nM and 1.24 ± 0.04%. The like results for `NC(=O)c1cn(-c2ccc(F)cc2)c2ccc(CCc3ccccc3)cc2c1=O` [Compound 5, 1-(4-fluorophenyl)-4-oxo-6-phenethyl-1,4-dihydroquinoline-3-carboxamide] were, in that order, at least 10000 nM and 4.65%. The like results for `NC(=O)c1cn(-c2ccc(F)cc2)c2ccc(CN3CCC(C(F)(F)F)CC3)cc2c1=O` [Compound 77, 1-(4-fluorophenyl)-4-oxo-6-((4-(trifluoromethyl)piperidin-1-yl)methyl)-1,4-dihydroquinoline-3-carboxamide] were, in that order, 823 nM and 1.41%. With `NC(=O)c1cn(-c2ccc(F)cc2)c2ccc(CCc3cncc(F)c3)cc2c1=O` [Compound 48, 1-(4-fluorophenyl)-6-(2-(5-fluoropyridin-3-yl)ethyl)-4-oxo-1,4-dihydroquinoline-3-carboxamide], the half-inhibitory concentration (IC50) came out at 1030 nM and the remaining activity at 30 µM stood at 1.4%. Take `C[C@@H]1CN(Cc2ccc3c(c2)c(=O)c(C(N)=O)cn3-c2ccc(F)cc2)CCO1` [Compound 89, (R)-1-(4-fluorophenyl)-6-((2-methylmorpholino)methyl)-4-oxo-1,4-dihydroquinoline-3-carboxamide]: the IC50 came out at 1150 nM and the remaining activity at 30 µM came to 1.08%. The corresponding values for `NC(=O)c1cn(-c2ccc(F)cc2)c2ccc(CCc3ccncc3)cc2c1=O` [Compound 9, 1-(4-fluorophenyl)-4-oxo-6-(2-(pyridin-4-yl)ethyl)-1,4-dihydroquinoline-3-carboxamide] are 492 ± 97 nM and 1.88 ± 0.38%. Turning to `COc1ccc(-n2cc(C(N)=O)c(=O)c3cc(CCc4cnc(C)nc4)ccc32)cc1` [Compound 15, 1-(4-methoxyphenyl)-6-(2-(2-methylpyrimidin-5-yl)ethyl)-4-oxo-1,4-dihydroquinoline-3-carboxamide], the IC50 came to 139 nM and the remaining activity at 30 µM was determined as 1.61%. With `NC(=O)c1cn(-c2ccc(F)cc2)c2ccc(COc3ccc(C(F)(F)F)nc3)cc2c1=O` [Compound 36, 1-(4-fluorophenyl)-4-oxo-6-(((6-(trifluoromethyl)pyridin-3-yl)oxy)methyl)-1,4-dihydroquinoline-3-carboxamide], the half-inhibitory concentration (IC50) turned out to be 1460 nM and the remaining activity at 30 µM came out at 1.28%. The corresponding values for `CC1CN(Cc2ccc3c(c2)c(=O)c(C(N)=O)cn3-c2ccc(F)cc2)CCO1` (stereo not shown) [Compound 79, 1-(4-fluorophenyl)-6-((2-methylmorpholino)methyl)-4-oxo-1,4-dihydroquinoline-3-carboxamide] are 328 ± 64 nM and 1.31 ± 0.04%.

`Cc1ccc(CCc2ccc3c(c2)c(=O)c(C(N)=O)cn3-c2ccc(F)cc2)cc1` [Compound 6, 1-(4-fluorophenyl)-6-(4-methylphenethyl)-4-oxo-1,4-dihydroquinoline-3-carboxamide]: the IC50 was over 10000 nM and the remaining activity at 30 µM was found to be 68.5%.
